How the values were obtained:
GTG = molecular target: T1, GTG (UniProt P08587); test: Reactivity of GTG for fluorescent substrate (crosslinking with β-casein); format: biochemical, guinea pig; settings: substrate 1 mM, β-casein 0.5 mg/ml, GTG 0.2 U/ml, 50 mM HEPES pH 7.4, overnight 27° C.
T1 construct: purchased
T1 sequence (P08587 1-690): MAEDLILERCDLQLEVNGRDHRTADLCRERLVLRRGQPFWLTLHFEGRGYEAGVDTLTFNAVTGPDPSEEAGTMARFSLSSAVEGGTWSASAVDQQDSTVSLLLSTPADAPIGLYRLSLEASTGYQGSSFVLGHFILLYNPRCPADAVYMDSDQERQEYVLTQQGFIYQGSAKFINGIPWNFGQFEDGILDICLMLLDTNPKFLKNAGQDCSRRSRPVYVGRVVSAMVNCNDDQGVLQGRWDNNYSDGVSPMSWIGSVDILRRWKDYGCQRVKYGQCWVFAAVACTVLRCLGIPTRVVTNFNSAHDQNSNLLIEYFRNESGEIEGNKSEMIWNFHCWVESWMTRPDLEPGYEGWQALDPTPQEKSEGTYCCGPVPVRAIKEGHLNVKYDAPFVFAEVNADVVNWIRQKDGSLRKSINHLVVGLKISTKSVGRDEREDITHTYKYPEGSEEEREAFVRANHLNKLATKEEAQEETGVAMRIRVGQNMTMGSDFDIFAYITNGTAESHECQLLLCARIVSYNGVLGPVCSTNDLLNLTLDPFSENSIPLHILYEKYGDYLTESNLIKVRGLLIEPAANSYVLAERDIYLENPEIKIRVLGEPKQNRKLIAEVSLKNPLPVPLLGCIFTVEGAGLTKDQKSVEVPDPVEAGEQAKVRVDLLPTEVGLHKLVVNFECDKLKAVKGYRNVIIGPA
Description: In the experiment, β-casein was used as a protein having a TGase-recognizable Lys and a reaction for crosslinking with a fluorescent substrate was performed to evaluate its reactivity for GTG.
To perform a binding reaction, FITC-β-Ala-QG, β-casein and GTG were added to 50 mM HEPES (5 mM NaCl, 10 mM CaCl2, pH 7.4) to give respective final concentrations of 1 mM, 0.5 mg/ml and 0.2 U/ml and the resulting mixture was left to stand overnight at 27° C. Two comparative samples were prepared; one was a GTG-free sample and the other was prepared by performing an MTG-catalyzed reaction. For the MTG-catalyzed binding reaction, FITC-β-Ala-QG, β-casein and MTG were added to a 10 mM phosphate buffer (pH 7) to give respective final concentrations of 1 mM, 0.5 mg/ml and 1 U/ml and the resulting mixture was left to stand overnight at 27° C. Tracing on the sample after the reaction was performed by the same procedure as in Experiment 2-2.

MTG [1] = molecular target: T2, MTG (Streptomyces mobaraensis, UniProt P81453); test: MTG-catalyzed introduction of fluorescent substrate into anti-PSA IgG antibody (optimization, substrate comparison); format: biochemical, microbial
T2 construct: purchased AJINOMOTO (supplied as a gift)
T2 sequence (P81453 77-407): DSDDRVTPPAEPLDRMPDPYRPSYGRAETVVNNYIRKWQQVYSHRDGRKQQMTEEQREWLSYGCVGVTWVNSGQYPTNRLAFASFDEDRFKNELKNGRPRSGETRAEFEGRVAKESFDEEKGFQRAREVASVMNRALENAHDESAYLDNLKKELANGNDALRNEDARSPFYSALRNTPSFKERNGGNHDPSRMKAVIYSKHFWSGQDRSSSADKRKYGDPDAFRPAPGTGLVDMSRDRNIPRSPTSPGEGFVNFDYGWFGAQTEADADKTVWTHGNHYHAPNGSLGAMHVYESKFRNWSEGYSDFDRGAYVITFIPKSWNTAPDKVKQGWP
Description: To a 50 mM buffer whose pH was varied over the range from 5 to 9 (pH 5 acetate buffer; pH 6-7 phosphate buffer; pH 8 Tris-HCl; pH 9 boric acid buffer), FITC-β-Ala-QG, an anti-PSA (prostate specific antigen) IgG antibody (mouse-derived, monoclonal) and MTG were added to give respective final concentrations of 0.1 mM, 0.5 mg/ml, and 1 U/ml. These ingredients were well stirred and left to stand at 4° C. for reaction. After 1-hr or 6-hr reaction, the sample was mixed with a sample buffer and heated at 95° C. for 15 minutes to stop the reaction. Thereafter, SDS-polyacrylamide gel electrophoresis (SDS-PAGE) was applied. The gel from SDS-PAGE was stained with Coomassie Brilliant Blue (CBB) and observed with a fluorescent imager.
(§1) To 50 mM Tris-HCl (pH 8), FITC-β-Ala-QG, an anti-PSA IgG antibody and MTG were added to give respective final concentrations of 1 mM, 0.5 mg/ml, and 0.001-1 U/ml. These ingredients were well stirred and left to stand at 4° C. for reaction. The reaction was stopped and evaluation was made by the same procedures as in Experiment 2-1.
as §1, with “of 0.001-1” for “of 1”, “and 1” for “and 0.001-1”
To PBS, FITC-β-Ala-QG, an anti-PSA IgG antibody (mouse-derived, monoclonal) and MTG were added to give respective final concentrations of 1 mM, 0.5 mg/ml, and 1 U/ml. These ingredients were well stirred and left to stand at 4° C. or 40° C. for reaction. After 3-, 6- and 18-hr reactions, the reaction was stopped and evaluation was made by the same procedures as in Experiment 2-1.
To PBS, FITC-β-Ala-QG, an anti-PSA IgG antibody (mouse-derived, monoclonal) and MTG were added to give respective final concentrations of 1 mM, 0.5 mg/ml, and 1 U/ml. These ingredients were well stirred and left to stand for 18 hours at 4° C. for reaction. For the purpose of comparison, two additional samples were prepared, one being free of FITC-β-Ala-QG-biotin and the other having been reacted with a biotin-free fluorescent substrate (FITC-β-Ala-QG). After the reaction, the samples were purified by ultrafiltration (product of MILLIPORE Corp.; 100 kDa cut).

MTG [2] = molecular target: T2, MTG; test: MTG-catalyzed introduction of fluorescent substrates into anti-lysozyme IgG2a antibody; format: biochemical, microbial; settings: substrate 1 mM, mouse anti-lysozyme IgG2a 0.5 mg/ml, MTG 1 U/ml, pH 7, overnight 4° C.; reduced SDS-PAGE
Description: A fluorescent substrate (FITC-ε-Acp-QG, FITC-β-Ala-QG, TR-β-Ala-QG or […]), mouse-derived anti-lysozyme IgG2a antibody (monoclonal) and MTG were added to a 10 mM phosphate buffer (pH 7) to give respective final concentrations of 1 mM, 0.5 mg/ml and 1 U/ml. For the purpose of comparison, an MTG-free sample was prepared. The ingredients were thoroughly agitated and the resulting solution was left to stand overnight at 4° C.
After the reaction, the samples were subjected to SDS-PAGE. The gel from SDS-PAGE was examined with a fluorescent imager before it was stained with a CBB dye solution. For the Dns-ε-Acp-QG containing sample, examination was made with a transilluminator.

SMILES: NC(=O)CCC(NC(=O)CCNC(=S)Nc1ccc(-c2c3ccc(=O)cc-3oc3cc(O)ccc23)c(C(=O)O)c1)C(=O)NCC(=O)O (stereo not drawn) [FITC-β-Ala-QG]
- Reactivity of fluorescent substrate for GTG (GTG): also recognized by MTG
- pH of highly efficient introduction into antibody (MTG [1]; anti-PSA IgG antibody, substrate 0.1 mM, MTG 1 U/ml, 4° C., 1 and 6 hours): ~7
- Substrate concentration dependency of antibody labeling (MTG [1]; anti-PSA IgG antibody, substrate 0.001-1 mM, MTG 1 U/ml, pH 8, 4° C.): proceeded with the increasing substrate concentration
- MTG concentration at which a highly efficient reaction proceeded (MTG [1]; anti-PSA IgG antibody, substrate 1 mM, pH 8, 4° C., MTG 0.001-1 U/ml): 1 U
- Introduction into the antibody (MTG [1]; before the addition of the resin (lanes 1-3)): verified the introduction
- Reactivity of antibody with fluorescent substrate by MTG catalysis (MTG [2]): H chains of the antibody are modified

— patent US20110184147A1, “ENZYME SUBSTRATE FOR LABELING OF PROTEIN” (priority 2008, published 2011)
